Measurements published in patent US9878007B2, “Syndecan peptides and polypeptides as inhibitors of vascular endothelial growth factor receptor-2 (VEGFR2) and very late antigen-4 (VLA-4)” (Wisconsin Alumni Research Foundation, priority 2015, dated 2018).
No end group written: not given here.

Columns and labels:
VEGFR2 and VLA-4 = target: T1, VEGFR2 and VLA-4 (Homo sapiens, UniProt P05556+P13612+P35968); test: Activation / inhibition of Sdc1-mediated coupling of VEGFR2 to VLA-4 (FIGS. 6A-H); format: cell-based
T1 construct: the α4-integrin (VLA-4), which is expressed on myeloma cells; endogenous in cells; host or cells: CAG human myeloma cells (HPSE^low / HPSE^high) plated on fibronectin
T1 sequence (P35968 20-1356): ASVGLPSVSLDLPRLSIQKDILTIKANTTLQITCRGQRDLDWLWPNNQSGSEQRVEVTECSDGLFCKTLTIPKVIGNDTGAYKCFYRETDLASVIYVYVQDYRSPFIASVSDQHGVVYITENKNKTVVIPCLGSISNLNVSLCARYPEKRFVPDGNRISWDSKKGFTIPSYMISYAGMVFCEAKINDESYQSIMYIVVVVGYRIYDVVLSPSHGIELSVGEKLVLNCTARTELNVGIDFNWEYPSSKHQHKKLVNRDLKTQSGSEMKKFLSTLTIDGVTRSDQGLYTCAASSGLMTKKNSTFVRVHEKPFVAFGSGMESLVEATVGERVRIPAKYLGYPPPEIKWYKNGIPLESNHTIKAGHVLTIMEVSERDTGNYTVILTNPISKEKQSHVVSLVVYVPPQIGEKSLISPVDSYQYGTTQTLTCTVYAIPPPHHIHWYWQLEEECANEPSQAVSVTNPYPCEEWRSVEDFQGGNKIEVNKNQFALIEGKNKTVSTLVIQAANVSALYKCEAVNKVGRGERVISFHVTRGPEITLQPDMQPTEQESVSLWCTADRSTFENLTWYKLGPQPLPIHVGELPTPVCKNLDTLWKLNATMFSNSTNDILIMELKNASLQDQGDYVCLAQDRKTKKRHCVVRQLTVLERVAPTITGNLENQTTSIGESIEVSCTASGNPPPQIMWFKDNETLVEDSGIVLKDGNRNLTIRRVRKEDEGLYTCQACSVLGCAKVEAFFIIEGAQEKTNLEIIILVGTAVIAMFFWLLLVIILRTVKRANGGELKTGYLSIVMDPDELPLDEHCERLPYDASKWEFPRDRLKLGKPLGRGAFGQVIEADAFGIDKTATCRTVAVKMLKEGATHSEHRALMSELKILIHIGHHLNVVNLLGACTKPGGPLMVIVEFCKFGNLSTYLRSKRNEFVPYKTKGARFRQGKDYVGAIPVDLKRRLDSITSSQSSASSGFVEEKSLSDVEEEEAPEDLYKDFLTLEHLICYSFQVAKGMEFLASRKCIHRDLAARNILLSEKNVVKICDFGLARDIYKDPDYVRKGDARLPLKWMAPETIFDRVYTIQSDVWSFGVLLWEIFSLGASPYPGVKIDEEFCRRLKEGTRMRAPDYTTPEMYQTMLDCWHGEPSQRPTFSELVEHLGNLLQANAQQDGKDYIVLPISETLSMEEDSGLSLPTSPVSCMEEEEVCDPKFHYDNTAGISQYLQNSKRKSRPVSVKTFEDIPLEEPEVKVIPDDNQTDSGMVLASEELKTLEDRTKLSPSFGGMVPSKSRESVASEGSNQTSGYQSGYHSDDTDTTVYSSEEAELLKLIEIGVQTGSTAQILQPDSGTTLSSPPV
T1 sequence (P13612 34-1032): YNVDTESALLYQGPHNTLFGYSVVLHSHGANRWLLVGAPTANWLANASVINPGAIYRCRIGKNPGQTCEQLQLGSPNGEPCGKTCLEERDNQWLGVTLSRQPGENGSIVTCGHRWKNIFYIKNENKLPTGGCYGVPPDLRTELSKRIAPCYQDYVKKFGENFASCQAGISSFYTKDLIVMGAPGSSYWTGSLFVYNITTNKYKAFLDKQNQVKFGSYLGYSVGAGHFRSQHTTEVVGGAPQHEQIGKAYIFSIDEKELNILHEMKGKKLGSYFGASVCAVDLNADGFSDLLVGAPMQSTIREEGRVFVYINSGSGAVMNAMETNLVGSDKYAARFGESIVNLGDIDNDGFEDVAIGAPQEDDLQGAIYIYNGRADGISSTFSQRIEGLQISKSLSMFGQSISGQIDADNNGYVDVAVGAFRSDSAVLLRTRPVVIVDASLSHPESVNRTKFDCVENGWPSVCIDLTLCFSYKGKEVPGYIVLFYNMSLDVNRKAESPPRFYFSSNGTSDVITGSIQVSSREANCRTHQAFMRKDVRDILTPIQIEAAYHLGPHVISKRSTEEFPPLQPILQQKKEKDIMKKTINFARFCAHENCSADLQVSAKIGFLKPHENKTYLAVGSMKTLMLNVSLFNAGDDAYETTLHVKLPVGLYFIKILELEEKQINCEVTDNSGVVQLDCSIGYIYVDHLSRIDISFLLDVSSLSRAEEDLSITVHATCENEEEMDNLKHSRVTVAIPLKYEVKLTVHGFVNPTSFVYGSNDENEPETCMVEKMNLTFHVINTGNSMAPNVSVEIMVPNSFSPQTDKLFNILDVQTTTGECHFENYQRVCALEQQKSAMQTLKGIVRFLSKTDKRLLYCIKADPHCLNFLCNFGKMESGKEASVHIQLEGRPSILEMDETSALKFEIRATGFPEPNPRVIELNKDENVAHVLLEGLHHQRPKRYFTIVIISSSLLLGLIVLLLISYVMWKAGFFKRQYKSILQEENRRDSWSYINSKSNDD
T1 sequence (P05556 21-798): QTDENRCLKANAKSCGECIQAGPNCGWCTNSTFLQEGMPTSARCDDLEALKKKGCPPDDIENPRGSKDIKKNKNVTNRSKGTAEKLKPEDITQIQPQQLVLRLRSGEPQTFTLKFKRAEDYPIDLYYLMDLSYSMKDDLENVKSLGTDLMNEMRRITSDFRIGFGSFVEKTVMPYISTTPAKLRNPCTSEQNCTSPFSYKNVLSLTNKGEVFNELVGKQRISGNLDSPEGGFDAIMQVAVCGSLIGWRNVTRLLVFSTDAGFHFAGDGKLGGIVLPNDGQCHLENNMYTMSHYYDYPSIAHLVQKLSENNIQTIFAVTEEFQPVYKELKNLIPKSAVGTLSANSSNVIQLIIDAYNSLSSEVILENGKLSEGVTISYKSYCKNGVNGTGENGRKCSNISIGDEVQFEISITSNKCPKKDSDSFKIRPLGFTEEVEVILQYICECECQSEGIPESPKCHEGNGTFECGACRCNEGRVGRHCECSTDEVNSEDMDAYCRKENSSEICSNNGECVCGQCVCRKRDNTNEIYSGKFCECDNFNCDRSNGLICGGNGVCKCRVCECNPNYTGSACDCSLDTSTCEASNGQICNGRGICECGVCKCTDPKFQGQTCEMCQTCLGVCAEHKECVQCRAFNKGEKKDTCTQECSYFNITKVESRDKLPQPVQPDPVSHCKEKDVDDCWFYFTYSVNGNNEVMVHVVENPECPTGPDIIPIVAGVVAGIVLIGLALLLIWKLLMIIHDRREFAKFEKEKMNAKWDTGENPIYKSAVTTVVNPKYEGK
Procedure: (§1) FIGS. 6A-G. Peptides derived from the active site in Sdc1 activate or inhibit adhesion and invasion. (FIG. 6A) Transwell migration assays towards FN (for 16 hrs) were performed for HPSE low or high cells in the presence of 0, 0.3, 3, and 30 μM of S1ED^210-240. Cells migrating to the bottom side of the filter were counted from five random images for each treatment. (FIG. 6B) The sequence of S1ED210-240 is shown (SEQ ID NO: 3), as well as […] truncation mutants of the peptide (SEQ ID NOs: 5, 2, 4 and 7). Amino acids shown in red appear necessary for the spreading and invasive activity. (FIG. 6C) Images of HPSE^low and HPSE^high cells plated on FN for 2 hr. (FIG. 6D) HPSE^low cells were treated with 0, 0.3, 3, 10 and 30 μM of S1ED^210-236, S1ED^210-233, or S1ED^214-240, plated on FN for 2 hr, fixed and stained with fluorescent phalloidin. Cells from five random images were quantified for cell attachment and cell spreading. (FIG. 6E) HPSE^high cells were treated with 0, 3, 10, and 30 μM of S1ED^210-236, S1ED^210-233, and S1ED^214-240, plated on FN for 2 hr, then fixed, imaged and quantified as in FIG. 6D. (FIG. 6F) Transwell migration assays towards FN (for 16 hr) were performed for HPSE^low or HPSE^high cells in the presence of 30 μM of S1ED^210-236, S1ED^210-233, S1ED^214-240 and Vandetanib. (FIG. 6G) HPSE^low cell lysates were incubated overnight with glutathione beads coated with GST or GST-S1ED in the absence or presence of 30 μM of S1ED^210-236, S1ED^210-233, and S1ED^214-240. Capture of VLA-4 or VEGFR2 was detected by immunoblotting. Sequences in FIG. 6B are 210-240 (SEQ ID NO: 3), 210-236 (SEQ ID NO: 2), 210-233 (SEQ ID NO: 4), 214-240 (SEQ ID NO: 5) and 214-236 (SEQ ID NO: 7).
It is envisioned that a peptide that contains binding sites for both VEGFR2 and VLA-4, such as 210-236, has the capacity to bridge both receptors and link them together. This activates signaling that the cells use for migration and invasion. […]

VEGFR2 = target: T2, VEGFR2 (Homo sapiens, UniProt P35968); test: VEGFR2 activation (pY1054/1059 immunoblot) in HPSE^low CAG cells; format: cell-based; conditions: 0.3 μM peptide, 2.5 h
T2 construct: endogenous in cells; host or cells: CAG human myeloma cells (HPSE^low = empty vector; HPSE^high = human HPSE cDNA)
T2 sequence (P35968 20-1356): as the sequence (P35968 20-1356) above
Procedure: FIGS. 4A-C. HPSE expression leads to activation of VEGFR2 when α4-integrin engages ligand. (FIG. 4A) HPSE^low and HPSE^high cells treated with or without 1 μM Vandetanib, 20 ng/ml VEGF, or 20 μg/ml VEGFR2 blocking antibody are plated on VCAM-1 to observe cell spreading (Bar=50 μm); (FIG. 4B) HPSE^high cells plated on FN were treated with MMP-9 blocking antibody or 1 μM Vandetanib in the absence or presence of 0.3 μM S1ED^210-236 (Bar=50 μm); (FIG. 4C) HPSE^low cells were kept in suspension or were seeded on FN in the absence or presence of 0.3 μM S1ED^210-236 for 2.5 h. Cell lysates were immunoblotted with antibodies against pY1054/1059 in VEGFR2 as a marker of VEGFR2 activation. Actin is shown as a loading control.
The inventors next questioned whether VEGFR2 is upstream (e.g., responsible for shedding) or downstream (e.g., a target of the shed Sdc1) of Sdc1 shedding by testing whether or not Sdc1 mimetic peptide could rescue Vandetinib-blocked spreading. HPSE^high cell spreading on FN was inhibited using either anti-MMP9 blocking antibody or Vandetanib in the presence or absence of S1ED^210-236. […] VEGFR2 activation was assessed by measuring autophosphorylation at Tyr1054/1059 in its kinase domain (Lamalice et al., 2007).

VLA-4 = target: T3, VLA-4 (Homo sapiens, UniProt P05556+P13612); test: GST pull down assay: capture of VLA-4 by GST-S1ED; format: binding; conditions: HPSE^low cell lysates; peptide 30 M [sic]
T3 construct: the α4-integrin (VLA-4), which is expressed on myeloma cells; endogenous in cells; host or cells: CAG human myeloma cells (HPSE^low), whole-cell lysate
T3 sequence (P13612 34-1032): as the sequence (P13612 34-1032) above
T3 sequence (P05556 21-798): as the sequence (P05556 21-798) above
Procedure: as §1
CAG cells were washed with CMF-PBS and then lysed for 20 min on ice in lysis buffer. Cell debris was removed by centrifugation at 13000 rpm for 20 min at 4° C. Whole cell lysates were then incubated at 4° C. overnight with either 3 μM GST or 3 μM GST-S1ED in the absence or presence of 1 μM, 3 μM, and 10 μM S1ED^210-240 peptide. GST or GST-S1ED was captured by addition of glutathione Sepharose and the beads were washed with ice-cold lysis buffer and CMF-PBS, prior to addition of SDS-PAGE sample buffer and analyszed by electrophoresis and western blotting as described previously.

EC50 (VEGFR2 and VLA-4; FIGS. 6A-H, read-out: EC50 of bridging VEGFR2 and VLA-4, activating signaling used for migration and invasion): 0.3 µM | IC50 (VEGFR2 and VLA-4; read-out: IC50 as inhibitor of the VLA-4/VEGFR2 coupling mechanism): 10 µM | VEGFR2 phosphorylation at Tyr1054/1059 (VEGFR2; HPSE^low cells in suspension): no alteration of VEGFR2 phosphorylation
Sequence: DFTFETSGENTAVVAVEPDRRNQSPVD [S1ED^210-236]
VEGFR2 phosphorylation at Tyr1054/1059 (VEGFR2; HPSE^low cells plated on FN): causes VEGFR2 phosphorylation in HPSE^low cells plated on FN | competition for capture of VLA-4 by GST-S1ED (VLA-4): effectively blocks capture of both receptors
